What was measured:
[1] = system: patients suffering from Parkinson's Disease; conditions: patients with Parkinson's Disease treated for psychoses; cited from earlier work
[2] = system: cynomolgus monkeys exposed to 1-methyl-4-phenyl-1,2,3,6-tetrahydropyridine (MPTP)
Protocol: Quetiapine may be administered to cynomolgus monkeys exposed to 1-methyl-4-phenyl-1,2,3,6-tetrahydropyridine (MPTP) and which therefore have MPTP-induced Parkinson's Disease. Such monkeys are described by Blanchet et al., Experimental Neurology, 153, 214-222 (1998).
The monkeys are assessed according to the Laval University Disability Scale for MPTP monkeys with the following motor and behavioural parameters scored: posture (normal, flexed, crouched); mobility (normal, passive); climbing (present, absent); gait (normal, abnormal); tremor (present, absent); holding food (present, absent); vocalising (present, absent); grooming (present, absent); and social interaction (present, absent).
Quetiapine may be administered at various dosage values, either alone or with varying dosages of levodopa, and scoring is carried out at regular intervals.
Quetiapine was administered subcutaneously to 8 cynomolgus monkeys at doses of 2 mg/Kg and 4 mg/Kg.

For OCCOCCN1CCN(C2=Nc3ccccc3Sc3ccccc32)CC1 [Quetiapine, 11-(4-[2-(2-hydroxyethoxy)ethyl]-l-piperazinyl)dibenzo[b,f] [1.4]-thiazepine], the “exacerbation of extra-pyramidal symptoms” value [1] is listed as “no exacerbation of extra-pyramidal symptoms”, the “levodopa effect on Parkinson's Disease symptoms” value ([2]; quetiapine 2 mg/Kg and 4 mg/Kg subcutaneously with levodopa) is listed as “unchanged” and the “reduction of levodopa-induced dyskinesias, compared with the 4 mg/Kg dose” value ([2]; quetiapine 2 mg/Kg subcutaneously, 8 cynomolgus monkeys) is listed as “less effective”. For the same molecule, the “reduction of maximum levodopa-induced dyskinesias” value ([2]; quetiapine 4 mg/Kg subcutaneously, levodopa dose sufficient to produce maximum dyskinesias, 8 cynomolgus monkeys) was 41% and the “reduction of moderate levodopa-induced dyskinesias” value ([2]; quetiapine 4 mg/Kg subcutaneously, levodopa dose sufficient to produce moderate dyskinesias, 8 cynomolgus monkeys) was 57%.
